Measurements taken from the CheMixHub viscosity set.
Several values for one entry are separate records, joined by “and”; a condition that tells them apart may be missing. Identical values can stand only once. ± gives the uncertainty stated by the source.

Experiment: xn = mol fraction of the nth substance listed

Cc1cc(C)cc(C)c1 + O=C1CCCCC1
viscosity [mPa·s], 101.33 kPa
Conditions	x2 = 0.0996	x2 = 0.1988	x2 = 0.3039	x2 = 0.4042	x2 = 0.5038	x2 = 0.602	x2 = 0.7001	x2 = 0.8014	x2 = 0.8988
298.15 K	0.702 ± 0.005	0.75 ± 0.006	0.81 ± 0.006	0.882 ± 0.006	0.965 ± 0.007	1.067 ± 0.007	1.193 ± 0.008	1.375 ± 0.009	1.607 ± 0.01
303.15 K	0.657 ± 0.005	0.702 ± 0.005	0.755 ± 0.005	0.819 ± 0.006	0.896 ± 0.006	0.987 ± 0.007	1.115 ± 0.007	1.258 ± 0.008	1.484 ± 0.009
308.15 K	0.619 ± 0.005	0.659 ± 0.005	0.706 ± 0.005	0.765 ± 0.005	0.835 ± 0.006	0.915 ± 0.006	1.027 ± 0.007	1.168 ± 0.008	1.373 ± 0.009

[Cl-].[Cl-].[Cl-].[Cl-].[Sn+4] + O=C(O)C(Cl)(Cl)Cl
323.15 K, 101 kPa
Conditions	viscosity [mPa·s]
x1 = 0.1911	2.66 ± 0.11
x1 = 0.4139	1.448 ± 0.061
x1 = 0.667	0.959 ± 0.04

[Cl-].[Cl-].[Cl-].[Cl-].[Sn+4] + O=C(O)CCl
323.15 K, 101 kPa
Conditions	viscosity [mPa·s]
x1 = 0.025	3.305 ± 0.033
x1 = 0.0506	3.944 ± 0.036
x1 = 0.0951	4.193 ± 0.042
x1 = 0.0957	4.1 ± 0.041
x1 = 0.1491	4.17 ± 0.042
x1 = 0.2041	3.921 ± 0.039
x1 = 0.2511	2.927 ± 0.031
x1 = 0.3456	2.003 ± 0.02
x1 = 0.4928	1.41 ± 0.013
x1 = 0.6663	0.948 ± 0.009
x1 = 0.7708	0.836 ± 0.008

CCCCCC[N+]1(C)CCOCC1.[Br-] + O=S1(=O)CCCC1
100 kPa, x1 = 0.0998
Conditions	viscosity [mPa·s]
293.15 K	42.16 ± 0.95
298.15 K	34.36 ± 0.78
303.15 K	28.35 ± 0.64
308.15 K	23.7 ± 0.54
313.15 K	20.06 ± 0.45
318.15 K	17.1 ± 0.39
323.15 K	14.72 ± 0.33

O=C1CCCN1 + OCCCO
308.15 K, 101 kPa
Conditions	viscosity [mPa·s]
x1 = 0.1929	22.6 ± 1
x1 = 0.3918	17.83 ± 0.82
x1 = 0.4915	15.95 ± 0.74
x1 = 0.5918	14.51 ± 0.68
x1 = 0.6929	12.9 ± 0.61
x1 = 0.897	10.06 ± 0.49

O=C1CCCN1 + OCCO
101.33 kPa
Conditions	viscosity [mPa·s]
298.15 K, x1 = 0.04482	16.51 ± 0.34
298.15 K, x1 = 0.1032	16.1 ± 0.33
298.15 K, x1 = 0.2107	15.53 ± 0.32
298.15 K, x1 = 0.3059	15.19 ± 0.31
298.15 K, x1 = 0.3998	14.98 ± 0.31
298.15 K, x1 = 0.4988	14.85 ± 0.31
298.15 K, x1 = 0.6042	14.73 ± 0.31
298.15 K, x1 = 0.6866	14.62 ± 0.3
298.15 K, x1 = 0.7865	14.39 ± 0.3
298.15 K, x1 = 0.9015	13.95 ± 0.29
298.15 K, x1 = 0.9371	13.76 ± 0.29
308.15 K, x1 = 0.05148	11.22 ± 0.23
308.15 K, x1 = 0.2079	10.64 ± 0.22
308.15 K, x1 = 0.3048	10.4 ± 0.22
308.15 K, x1 = 0.3932	10.24 ± 0.21
308.15 K, x1 = 0.4992	10.12 ± 0.21
308.15 K, x1 = 0.9078	9.505 ± 0.2
308.15 K, x1 = 0.952	9.341 ± 0.2
318.15 K, x1 = 0.04423	7.91 ± 0.16
318.15 K, x1 = 0.1016	7.746 ± 0.16
318.15 K, x1 = 0.2104	7.505 ± 0.16
318.15 K, x1 = 0.318	7.342 ± 0.15
318.15 K, x1 = 0.3931	7.265 ± 0.15
318.15 K, x1 = 0.4945	7.195 ± 0.15
318.15 K, x1 = 0.592	7.15 ± 0.15
318.15 K, x1 = 0.7035	7.089 ± 0.15
318.15 K, x1 = 0.7949	7.002 ± 0.15
318.15 K, x1 = 0.8888	6.855 ± 0.14
318.15 K, x1 = 0.9417	6.74 ± 0.14

CCCCCC[N+]1(C)CCOCC1.[Br-] + OCCOCCO
100 kPa, x1 = 0.2003
Conditions	viscosity [mPa·s]
293.15 K	88.12 ± 2.5
298.15 K	66.83 ± 1.6
303.15 K	51.75 ± 1.2
308.15 K	40.85 ± 0.96
313.15 K	32.85 ± 0.77
318.15 K	26.75 ± 0.63
323.15 K	22.17 ± 0.52

CCCCCC[N+]1(C)CCOCC1.[Br-] + OCCOCCOCCO
100 kPa, x1 = 0.2005
Conditions	viscosity [mPa·s]
293.15 K	111.2 ± 3.7
298.15 K	83.7 ± 2.3
303.15 K	64.32 ± 1.5
308.15 K	50.24 ± 1.1
313.15 K	40.12 ± 0.94
318.15 K	32.53 ± 0.76
323.15 K	26.79 ± 0.63

CN(c1ccccc1)c1ccccc1 + Oc1ccccc1
101 kPa
Conditions	viscosity [mPa·s]
293.25 K, x2 = 0.0915	7.08 ± 0.08
293.25 K, x2 = 0.169	7.15 ± 0.08
293.25 K, x2 = 0.2877	7.3 ± 0.08
293.25 K, x2 = 0.4271	7.64 ± 0.11
293.25 K, x2 = 0.5326	7.98 ± 0.1
293.25 K, x2 = 0.6464	8.45 ± 0.11
293.25 K, x2 = 0.7197	8.85 ± 0.14
293.25 K, x2 = 0.7988	9.35 ± 0.15
293.25 K, x2 = 0.8785	9.95 ± 0.11
293.25 K, x2 = 0.942	10.48 ± 0.15
303.15 K, x2 = 0.0926	5.1 ± 0.06
303.15 K, x2 = 0.1813	5.13 ± 0.06
303.15 K, x2 = 0.328	5.19 ± 0.05
303.15 K, x2 = 0.5156	5.42 ± 0.06
303.15 K, x2 = 0.6595	5.7 ± 0.07
303.15 K, x2 = 0.7615	5.97 ± 0.06
303.15 K, x2 = 0.8443	6.26 ± 0.07
303.15 K, x2 = 0.9	6.5 ± 0.07
303.15 K, x2 = 0.9463	6.73 ± 0.08
313.15 K, x2 = 0.0926	3.785 ± 0.037
313.15 K, x2 = 0.1813	3.76 ± 0.04
313.15 K, x2 = 0.328	3.77 ± 0.04
313.15 K, x2 = 0.5156	3.88 ± 0.04
313.15 K, x2 = 0.6595	4.02 ± 0.04
313.15 K, x2 = 0.7615	4.15 ± 0.04
313.15 K, x2 = 0.8443	4.28 ± 0.04
313.15 K, x2 = 0.9	4.4 ± 0.05
313.15 K, x2 = 0.9463	4.51 ± 0.05

CN(c1ccccc1)c1ccccc1 + Oc1ccccc1Cl
viscosity [mPa·s], 101 kPa
Conditions	x2 = 0.1862	x2 = 0.3326	x2 = 0.47	x2 = 0.5927	x2 = 0.6593	x2 = 0.7583	x2 = 0.8455	x2 = 0.9249
293.15 K	6.47 ± 0.07	5.95 ± 0.07	5.53 ± 0.06	5.2 ± 0.06	5.02 ± 0.06	4.79 ± 0.06	4.59 ± 0.05	4.4 ± 0.05
303.15 K	4.635 ± 0.05	4.305 ± 0.046	4.03 ± 0.04	3.805 ± 0.041	3.685 ± 0.039	3.51 ± 0.04	3.36 ± 0.04	3.215 ± 0.035
313.15 K	3.5 ± 0.03	3.25 ± 0.03	3.04 ± 0.03	2.85 ± 0.03	2.75 ± 0.03	2.6 ± 0.03	2.49 ± 0.03	2.39 ± 0.02

[Cl-].[Cl-].[Cl-].[Cl-].[Sn+4] + c1ccccc1
viscosity, 101 kPa
Conditions	293.15 K	313.15 K
x2 = 0.5	–	0.5435 ± 0.008 mPa·s
x2 = 0.7	0.6136 ± 0.009 mPa·s	0.485 ± 0.007 mPa·s and 0.4846 ± 0.0072 mPa·s
